Test: log P (HPLC/MS data of the preparation examples)
[1] = LC-MS, method [b]: pH 2.7 with 0.1% formic acid in water and acetonitrile, linear gradient 10% to 95% acetonitrile
[2] = LC-MS, method [c]: pH 7.8 with 0.001 molar ammonium hydrogen carbonate solution in water, linear gradient 10% to 95% acetonitrile
[3] = reversed phase HPLC column, pH 2.7

SMILES | log p [1] | also measured
Cn1cncc1C(=O)c1ccsc1 [(1-methyl-1H-imidazol-5-yl)(3-thienyl)methanone] |  | chromatographic logP (HCOOH (formic acid)): 0.43
Cn1cncc1C(=O)c1ccccc1 [(1-methyl-1H-imidazol-5-yl)(phenyl)methanone] |  | chromatographic logP (HCOOH (formic acid)): 0.79
O=C(c1ccsc1)c1snc(Cl)c1Cl [(3,4-dichloro-1,2-thiazol-5-yl)(3-thienyl)methanone] |  | chromatographic logP (HCOOH (formic acid)): 3.31
Cc1cnc(C)c(C(C#N)c2ccccc2)n1 (stereo not drawn) [(3,6-dimethylpyrazin-2-yl)(phenyl)acetonitrile] |  | chromatographic logP (HCOOH (formic acid)): 2.28
Cc1cnc(C)c(C(=O)c2ccccc2)n1 [(3,6-dimethylpyrazin-2-yl)(phenyl)methanone] |  | chromatographic logP (HCOOH (formic acid)): 2.18
Cc1nocc1C(=O)c1cccs1 [(3-methyl-1,2-oxazol-4-yl)(2-thienyl)methanone] |  | chromatographic logP (HCOOH (formic acid)): 2.2
Cc1nocc1C(=NOC(=O)c1ccccn1)c1cccs1 [({[(3-methyl-1,2-oxazol-4-yl)(2-thienyl)methylene]amino}oxy)(pyridin-2-yl)methanone] |  | chromatographic logP (HCOOH (formic acid)): 2.25
Cc1nnsc1C(=NOCc1ccccn1)c1ccccc1 [Example 1] |  | log p (HPLC on reversed phase columns, method [a]: pH 2.3 with 0.1% phosphoric acid and acetonitrile as eluent): 2.36^[a]
Cn1ccnc1C(=NOCc1cccc(N2C(=O)c3ccccc3C2=O)n1)c1ccccc1 [Example 2] | 1.8^[b] | 
Cn1ccnc1C(=NOCc1nccc(N)n1)c1ccccc1 [Example 3] |  | log p [2]: 1.42^[c]
Cn1ncnc1C(=NOCc1cccc(N)n1)c1ccccc1 [Example 4, 6-[({[(1-methyl-1H-1,2,4-triazol-5-yl)(phenyl)methylene]amino}oxy)methyl]pyridin-2-amine] |  | chromatographic logP [3]: 1
Cc1cccc(C(=NOCc2cccc(N3C(=O)c4ccccc4C3=O)n2)c2ncnn2C)c1 [Example 5] | 3.04^[b] | 
Cc1ccccc1C(=NOCc1cccc(N)n1)c1ncnn1C [Example 6] | 0.96^[b] | 
Cc1cccc(C(=NOCc2cccc(N)n2)c2ncnn2C)c1 [Example 8] | 1.27^[b] | 
Cc1ccccc1C(=NOCc1cccc(N2C(=O)c3ccccc3C2=O)n1)c1ncnn1C [Example 9] | 2.78^[b] | 
Cc1ccc(C(=NOCc2cccc(N3C(=O)c4ccccc4C3=O)n2)c2ncnn2C)cc1 [Example 10] | 2.92^[b] | 
Cn1ccnc1C(=NOCc1cccc(N)n1)c1ccccc1 [Example 11] | 0.36^[b] | log p [2]: 1.89^[c];
Cn1ccnc1C(=NOCc1nccc(NC(=O)C(C)(C)C)n1)c1ccccc1 [Example 12] | 1.77^[b] | 
Cn1ncnc1C(=NOCc1cccc(N2C(=O)c3ccccc3C2=O)n1)c1ccccc1 [Example 13, 2-{6-[({[(1-methyl-1H-1,2,4-triazol-5-yl)(phenyl)methylene]amino}oxy)methyl]pyridin-2-yl}-1H-isoindole-1,3(2H)-dione] |  | chromatographic logP [3]: 2.76

SMILES | log p [1] | also measured
CCCCCCC(=O)Nc1ccnc(CON=C(c2ccccc2)c2nccn2C)n1 [Example 14] | 2.39^[b] | 
CC(C)CC(=O)Nc1ccnc(CON=C(c2ccccc2)c2nccn2C)n1 [Example 15] | 1.76^[b] | 
CCCCCC(=O)Nc1ccnc(CON=C(c2ccccc2)c2nccn2C)n1 [Example 16] | 2.1^[b] | 
Cc1ccc(C(=NOCc2cccc(NC(=O)C3CC3)n2)c2ncnn2C)cc1 [Example 17] | 2.73^[b] | 
CCCCCC(=O)Nc1cccc(CON=C(c2ccc(C)cc2)c2ncnn2C)n1 [Example 18] | 3.71^[b] | 
Cc1ccc(C(=NOCc2cccc(NC(=O)C(C)(C)C)n2)c2ncnn2C)cc1 [Example 19] | 3.31^[b] | 
Cc1cccc(C(=NOCc2cccc(NC(=O)C3CC3)n2)c2ncnn2C)c1 [Example 20] | 2.73^[b] | 
CCCCCC(=O)Nc1cccc(CON=C(c2cccc(C)c2)c2ncnn2C)n1 [Example 21] | 3.71^[b] | 
Cc1cccc(C(=NOCc2cccc(NC(=O)C(C)(C)C)n2)c2ncnn2C)c1 [Example 22] | 3.31^[b] | 
Cc1ccccc1C(=NOCc1cccc(NC(=O)C2CC2)n1)c1ncnn1C [Example 23] | 2.48^[b] | 
CCCCCC(=O)Nc1cccc(CON=C(c2ccccc2C)c2ncnn2C)n1 [Example 24] | 3.46^[b] | 
Cc1ccccc1C(=NOCc1cccc(NC(=O)C(C)(C)C)n1)c1ncnn1C [Example 25] | 3.06^[b] | 
Cn1ncnc1C(=NOCc1cccc(NC(=O)C(C)(C)C)n1)c1ccccc1 [Example 26] | 2.98^[b] | 
Cn1ncnc1C(=NOCc1cccc(NC(=O)C2CC2)n1)c1ccccc1 [Example 27] | 2.41^[b] | 
CCCCCC(=O)Nc1cccc(CON=C(c2ccccc2)c2ncnn2C)n1 [Example 28, N-{6-[({[(1-methyl-1H-1,2,4-triazol-5-yl)(phenyl)methylene]amino}oxy)methyl]pyridin-2-yl}hexanamide] |  | chromatographic logP [3]: 3.39
Cn1ncnc1C(=NOCc1cccc(NC(=O)Cc2ccccc2)n1)c1ccccc1 [Example 29] | 3.06^[b] | 
Cc1ccccc1C(=NOCc1cccc(NC(=O)Cc2ccccc2)n1)c1ncnn1C [Example 30] | 3.11^[b] | 
Cc1cccc(C(=NOCc2cccc(NC(=O)Cc3ccccc3)n2)c2ncnn2C)c1 [Example 31] | 3.35^[b] | 
Cn1ccnc1C(=NOCc1cccc(NC(=O)Cc2ccccc2)n1)c1ccccc1 [Example 32] | 2^[b] | 

SMILES | log p [1] | also measured
CCCCCC(=O)Nc1cccc(CON=C(c2ccccc2)c2nccn2C)n1 [Example 33] | 2.23^[b] | 
CCCCCOC(=O)Nc1cccc(CON=C(c2ccccc2)c2ncnn2C)n1 [Example 35] | 3.96^[b] | 
CC(C)CC(=O)Nc1cccc(CON=C(c2ccccc2)c2nccn2C)n1 [Example 36] | 1.89^[b] | 
CCCCCOC(=O)Nc1cccc(CON=C(c2ccccc2)c2nccn2C)n1 [Example 37] | 2.6^[b] | 
CCCCCC(=O)Nc1ccnc(CON=C(c2ccc(C)cc2)c2ncnn2C)n1 [Example 38] | 3.42^[b] | 
Cc1ccc(C(=NOCc2nccc(NC(=O)C(C)(C)C)n2)c2ncnn2C)cc1 [Example 39] | 3.02^[b] | 
Cc1ccc(C(=NOCc2nccc(NC(=O)C3CC3)n2)c2ncnn2C)cc1 [Example 40] | 2.46^[b] | 
CCCCCOC(=O)Nc1ccnc(CON=C(c2ccc(C)cc2)c2ncnn2C)n1 [Example 41] | 3.76^[b] | 
COC(=O)CCCC(=O)Nc1cccc(CON=C(c2ccc(C)cc2)c2ncnn2C)n1 [Example 42] | 2.68^[b] | 
COC(=O)CCCC(=O)Nc1cccc(CON=C(c2ccccc2)c2ncnn2C)n1 [Example 43] | 2.39^[b] | 
CCCCCOC(=O)Nc1cccc(CON=C(c2ccc(C)cc2)c2ncnn2C)n1 [Example 44] | 4.31^[b] | 
CCCCCOC(=O)Nc1cccc(CON=C(c2ccccc2C)c2ncnn2C)n1 [Example 45] | 4.06^[b] | 
Cn1ncnc1C(=NOCc1ncc(C(F)(F)F)cc1Cl)c1ccccc1 [Example 47] | 3.44^[b] | 
CCCCCC(=O)Nc1cccc(CON=C(c2cccc(C)c2)c2ncnn2C)n1 [Example 48] | 3.55^[b] | 
Cn1ncnc1C(=NOCc1ccccn1)c1ccccc1 [Example 50] | 1.51^[b] | 
Cn1ncnc1C(=NOCc1ccc2ccccc2n1)c1ccccc1 [Example 51] | 2.51^[b] | 
CCOC(=O)Nc1ccnc(CON=C(c2ccccc2)c2nccn2C)n1 [Example 52] | 1.47^[b] | 
COCC(=O)Nc1ccnc(CON=C(c2ccccc2)c2nccn2C)n1 [Example 53] | 1.2^[b] | 
